Results from ChEMBL document CHEMBL4000231, “Natural potential neuroinflammatory inhibitors from Alhagi sparsifolia Shap” (Bioorg Med Chem Lett, 2017).

Legend:
N9 [1] = experiment: Cytotoxicity against LPS-induced mouse N9 cells assessed as decrease in cell viability at 1 to 100 ug/ml after 24 hrs by MTT assay; format: cell-based; settings: n9, 24 h
N9 [2] = experiment: Antineuroinflammatory activity in mouse N9 cells assessed as inhibition of LPS-induced nitric oxide production after 24 hrs by Griess assay; format: functional, cell-based

| Structure (SMILES) | Activity (N9 [1]) | inhibition (N9 [2]) |
| --- | --- | --- |
| COc1ccc(CO)cc1O | Non-Toxic | Dose-dependent effect |
| COc1cc(OC)cc([C@@H]2OC[C@H]3[C@@H]2CO[C@H]3c2ccc(O)c(OC)c2)c1 | Non-Toxic | Dose-dependent effect |
| CC1=CC(C)(C)[C@@H](C)C1 | Non-Toxic | Dose-dependent effect |
| C=Cc1ccc(O)cc1OC | Non-Toxic | Dose-dependent effect |
| C[C@@H]1O[C@@H](OC[C@H]2O[C@@H](Oc3c(-c4ccc(O)c(O)c4)oc4cc(O)cc(O)c4c3=O)[C@H](O[C@@H]3O[C@@H](C)[C@H](O)[C@@H](O)[C@H]3O)[C@@H](O)[C@@H]2O)[C@H](O)[C@H](O)[C@H]1O | Non-Toxic | Dose-dependent effect |
| COc1ccc(-c2coc3c(OC)c(O)ccc3c2=O)cc1O | Non-Toxic | Dose-dependent effect |
| O=C(N[C@@H](Cc1ccccc1)C(=O)N[C@H](CO)Cc1ccccc1)c1ccccc1 | Non-Toxic | Dose-dependent effect |
| CC1=CC(=O)CC(C)(C)[C@@]1(O)/C=C/C(C)=C\C(=O)O [(+)-ABSCISIC ACID] | Non-Toxic | Dose-dependent effect |
| COc1cc([C@@H]2OC[C@@H]3[C@H]2CO[C@H]3c2ccc(O)c(OC)c2)ccc1O [(+)-PINORESINOL] | Non-Toxic | Dose-dependent effect |
| COc1cc([C@@H]2OC[C@@H]3[C@H]2CO[C@H]3c2cc(OC)c(O[C@@H]3O[C@H](CO)[C@@H](O)[C@H](O)[C@H]3O)c(OC)c2)cc(OC)c1O [ACANTHOSIDE B] | Non-Toxic | Dose-dependent effect |
| CC1=CC(=O)CC(C)(C)[C@@]1(O)/C=C/[C@@H](C)O [BLUMENOL A] | Non-Toxic | Dose-dependent effect |
| COc1ccc(-c2coc3cc(O)ccc3c2=O)cc1O [CALYCOSIN] | Non-Toxic | Dose-dependent effect |
| O=c1c(O[C@@H]2O[C@H](CO)[C@@H](O)[C@H](O)[C@H]2O)c(-c2ccc(O)c(O)c2)oc2cc(O)cc(O)c12 [ISOQUERCETIN] | Non-Toxic | Dose-dependent effect |
| COc1cc(-c2oc3cc(O)cc(O)c3c(=O)c2O)ccc1O [ISORHAMNETIN] | Non-Toxic | Dose-dependent effect |
| COc1ccc(-c2coc3cc(O)c(OC)cc3c2=O)cc1O [ODORATIN] | Non-Toxic | Dose-dependent effect |
| O=c1c(O)c(-c2ccc(O)c(O)c2)oc2cc(O)cc(O)c12 [QUERCETIN] | Non-Toxic | Dose-dependent effect |
| COc1cc([C@H]2OC[C@H]3[C@@H]2CO[C@@H]3c2cc(OC)c(O)c(OC)c2)cc(OC)c1O [SYRINGARESINOL] | Non-Toxic | Dose-dependent effect |
